Laboratory results published in PMC11675283, “Anticholinesterase Activity and Bioactive Compound Profiling of Six Hop (Humulus lupulus L.) Varieties” (Foods, 2024).
Values after ≈ are worked out from the molar mass of the structure shown.

Target: T1, tyrosinase from mushrooms
T1 construct: gene PPO3; commercial native mushroom tyrosinase (Sigma-Aldrich), isoenzyme mixture
Experiment: colorimetric diphenolase assay, absorbance at […] nm
Assay type: biochemical
Conditions: L-DOPA substrate

Work on `O=C(O)CCCCCCCC(=O)O` [azelaic acid] yielded an IC50 of 1.47 mg/mL (≈ 7.81 mM).
